Results taken from patent publication US20250222005A1, “METHYLENE BLUE CONTAINING COMPOUNDS FOR THE TREATMENT OF METHAEMOGLOBINAEMIA” (Wis Ta Laboratories Ltd., priority 2022, published 2025).
Each block holds one molecule with its values, some of them ahead of it.

Experiments:
[1] = tested on: methaemoglobin; test: Methaemoglobin (metHb) levels by pulse oximetry in AD trial patients receiving oral LMTM; assay type: in vivo, human; details: for Methaemoglobin, mean %: Table 5A, patients with SpO2 <94% at baseline; for Methaemoglobin, mean %, post dose: 4 hours post-dose, baseline SpO2 <94%; for Methaemoglobin, mean % ± SE: Table 5B, all patients
Experimental: (§1) Methods: Eighteen AD trial participants randomised to unit 4/75/100/125 mg doses of LMTM had SPO2 levels below 94% at baseline. Patients were routinely monitored by pulse oximetry after 4 hrs, and after 2 and 6 weeks of twice daily dosing. Computational chemistry was used to understand LMT-heme binding. The study design and results from two Phase 3, double-blind, controlled, randomised, studies of LMTM as a potential treatment for AD were described elsewhere (see “Gauthier, S., et al. “Efficacy and safety of tau-aggregation inhibitor therapy in patients with mild or moderate Alzheimer's disease: a randomised, controlled, double-blind, parallel-arm, phase 3 trial.” Lancet 2016; 388:2873-2884.” and “Wilcock, G K, et al. “Potential of low dose leuco-methylthioninium bis(hydromethanesulphonate) (LMTM) monotherapy for treatment of mild Alzheimer's disease: cohort analysis as modified primary outcome in a Phase Ill clinical trial.” Journal of Alzheimer's Disease 2017; 61:435-457.). In summary, 890 mild/moderate AD patients were randomly assigned (3:3:4) to 150 mg/day, 250 mg/day or 8 mg/day (intended as a control) for 15-months (clinicaltrials.gov NCT01689246). Similarly, 800 patients with mild AD were randomly assigned to 200 mg/day or 8 mg/day LMTM for 18-months (clinicaltrials.gov NCT01689233). In both trials, MetHb and SpO2 levels were measured by pulse oximetery (Massimo Corporation rad 57) at screening, baseline (within 1 hour prior to dosing), post-dose during the 4-hour observation, and subsequent clinic visits at 2 and 6 weeks. Statistical analyses were performed using R-version 3.5.1, employing paired samples t-tests to compare mean SpO2 and metHb levels.

[2] = target: heme iron of haemoglobin (Homo sapiens, UniProt P68871+P69905); details: from crystal field theory (Jorgensen); cited from earlier work
Chain of heme iron of haemoglobin (P69905 2-142 limits assumed): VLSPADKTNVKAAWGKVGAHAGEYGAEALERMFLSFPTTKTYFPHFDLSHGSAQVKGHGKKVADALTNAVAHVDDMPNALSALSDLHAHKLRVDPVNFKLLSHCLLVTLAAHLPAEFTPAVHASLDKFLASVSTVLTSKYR
Chain of heme iron of haemoglobin (P68871 2-147 limits assumed): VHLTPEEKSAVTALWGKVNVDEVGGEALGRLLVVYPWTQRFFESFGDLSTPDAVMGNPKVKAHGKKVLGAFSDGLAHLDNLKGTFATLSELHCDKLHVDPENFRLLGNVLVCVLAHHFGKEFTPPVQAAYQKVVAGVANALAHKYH

[3] = tested on: oxygen-haemoglobin dissociation curve; test: Estimation of effect of LMT treatment on oxygen-haemoglobin dissociation curve (SpO2 to PaO2 conversion table); parameters: species or system human; details: patients with mild hypoxaemia treated with LMTM; SpO2 plotted at baseline-implied PaO2
[4] = tested on: patients with mild hypoxaemia; test: Peripheral oxygen saturation (SpO2) by pulse oximetry in AD trial patients with baseline SpO2 below 94% receiving oral LMTM; assay type: in vivo, human; details: for Oxygen saturation, mean %: Baseline (1 hr) 92.167; for Difference in oxygen saturation with respect to baseline: pooled doses; for Oxygen saturation, mean %, post dose: 4 hours post-dose; for Change in mean SpO2 from baseline: four hours
Experimental: as §1

Methaemoglobin, mean % ([1]; LMT dose 4 mg, 4 hr, baseline 0.709): 0.733%
Methaemoglobin, mean % ([1]; LMT dose 4 mg, Week 2, baseline 0.709): 0.732%
Methaemoglobin, mean % ([1]; LMT dose 4 mg, Week 6, baseline 0.709): 0.769%
Methaemoglobin, mean % ([1]; LMT dose 150 mg, 4 hr, baseline 0.721): 0.781%
Methaemoglobin, mean % ([1]; LMT dose 150 mg, Week 2, baseline 0.721): 0.835%
Methaemoglobin, mean % ([1]; LMT dose 150 mg, Week 6, baseline 0.721): 0.888%
Methaemoglobin, mean % ([1]; LMT dose 200 mg, 4 hr, baseline 0.702): 0.760%
Methaemoglobin, mean % ([1]; LMT dose 200 mg, Week 2, baseline 0.702): 0.849%
Methaemoglobin, mean % ([1]; LMT dose 200 mg, Week 6, baseline 0.702): 0.873%
Methaemoglobin, mean % ([1]; LMT dose 250 mg, 4 hr, baseline 0.696): 0.758%
Methaemoglobin, mean % ([1]; LMT dose 250 mg, Week 2, baseline 0.696): 0.845%
Methaemoglobin, mean % ([1]; LMT dose 250 mg, Week 6, baseline 0.696): 0.858%
Methaemoglobin, mean %, post dose ([1]; single 4 mg dose, pre-dose 0.70): 0.87%
Methaemoglobin, mean %, post dose ([1]; single high dose (indicated as 100 mg), pre-dose 0.90): 0.65%
SMILES: CN(C)c1ccc2c(c1)Sc1cc(N(C)C)ccc1N2 [LMT, hydromethylthionine]
Estimated field factor of the LMT-heme interaction [2]: 1.2-1.5

Methaemoglobin, mean % ± SE ([1]; 8 mg (per day), 4 hr, baseline 0.709 ± 0.017, p 0.09732): 0.732 ± 0.017%
Methaemoglobin, mean % ± SE ([1]; 8 mg (per day), Week 2, baseline 0.709 ± 0.017, p 0.1326): 0.733 ± 0.018%
Methaemoglobin, mean % ± SE ([1]; 8 mg (per day), Week 6, baseline 0.709 ± 0.017, p 0.0006916): 0.770 ± 0.019%
Methaemoglobin, mean % ± SE ([1]; 150 mg (per day), 4 hr, baseline 0.721 ± 0.029, p 0.02212): 0.7811 ± 0.029%
Methaemoglobin, mean % ± SE ([1]; 150 mg (per day), Week 2, baseline 0.721 ± 0.029, p <0.0001): 0.831 ± 0.032%
Methaemoglobin, mean % ± SE ([1]; 150 mg (per day), Week 6, baseline 0.721 ± 0.029, p <0.0001): 0.889 ± 0.034%
Methaemoglobin, mean % ± SE ([1]; 200 mg (per day), 4 hr, baseline 0.702 ± 0.025, p 0.01967): 0.760 ± 0.023%
Methaemoglobin, mean % ± SE ([1]; 200 mg (per day), Week 2, baseline 0.702 ± 0.025, p <0.0001): 0.849 ± 0.027%
Methaemoglobin, mean % ± SE ([1]; 200 mg (per day), Week 6, baseline 0.702 ± 0.025, p <0.0001): 0.873 ± 0.030%
Methaemoglobin, mean % ± SE ([1]; 250 mg (per day), 4 hr, baseline 0.696 ± 0.028, p 0.005868): 0.758 ± 0.028%
Methaemoglobin, mean % ± SE ([1]; 250 mg (per day), Week 2, baseline 0.696 ± 0.028, p <0.0001): 0.837 ± 0.034%
Methaemoglobin, mean % ± SE ([1]; 250 mg (per day), Week 6, baseline 0.696 ± 0.028, p <0.0001): 0.851 ± 0.033%
Difference in metHb levels between baseline and 4-hours post-dose ([1]; both treatment groups (4 mg and high single doses), patients with baseline SpO2 <94%): no consistent difference
Effect on metHb levels over 6 weeks ([1]; higher doses (150, 200 and 250 mg/day), baseline SpO2 <94% subgroup, not statistically significant): systematically increased
SMILES: CN(C)c1ccc2c(c1)Sc1cc(N(C)C)ccc1N2 [LMTM, leuco-methylthioninium bis(hydromethanesulfonate)]
Implied effect of treatment on the oxygen-haemoglobin dissociation curve [3]: implied left-shift
Enhancement of oxygen saturation ([4]; patients with chronic hypoxaemia, single doses 4-125 mg and 6 weeks twice daily): about 3%
Oxygen saturation, mean % ([4]; pooled data all doses (8 mg/day and 150-250 mg/day), Week 2): 95.400%
Oxygen saturation, mean % ([4]; pooled data all doses (8 mg/day and 150-250 mg/day), Week 6): 95.571%
Oxygen saturation, mean % ([4]; pooled data all doses, Baseline (4 hr)): 95.333%
Difference in oxygen saturation with respect to baseline ([4]; week 2, p=0.0034): +3.17%
Difference in oxygen saturation with respect to baseline ([4]; week 6, p=0.0005): +3.23%
Oxygen saturation, mean %, post dose ([4]; single 4 mg dose, patients with baseline SpO2 <94%, pre-dose 91.71): 95.43%
Change in mean SpO2 from baseline ([4]; single 4 mg dose, p=0.0205): +3.72%
Change in mean SpO2 from baseline ([4]; single high dose (75, 100 or 125 mg), p=0.0045): +2.82%
Oxygen saturation, mean %, post dose ([4]; single high dose (75/100/125 mg indicated as 100 mg), baseline SpO2 <94%, pre-dose 92.45): 95.27%
